Patent US7112579B2, “26,27-Homologated-20-EPI-2-alkyl-19-nor-vitamin D compounds” (Wisconsin Alumni Research Foundation, priority 1997, dated 2006)
Values joined by “and” are separate entries in the source; they are usually repeats but may differ in a detail not shown here. Identical values can stand only once. Marks after values point to notes of the source that are not given here. Values belong to the compound of their own block, whether it stands above or below them.

Legend:
[1] = system: human promyelocyte HL-60 cells; assay: Differentiation of HL-60 promyelocytes into monocytes (NBT reduction); type: cell-based; conditions: for induction of differentiation of HL-60 cells to monocytes, in words: FIGS. 2, 4, 6, comparison in words; for HL-60 Differentiation ED50: concentration inducing 50% maturation (NBT)
Text: In the next assay, the cellular activity of the synthesized compounds was established by studying their ability to induce differentiation of human promyelocyte HL-60 cells into monocytes.

[2] = system: intestinal calcium transport; assay: Intestinal calcium transport (everted sac), chronic doses 7 days i.p., vitamin D-deficient rats; type: in vivo, rat; conditions: for intestinal calcium transport activity, in words: chronic 7 days, 130 and/or 260 pmol/day
Description: (§1) Male weanling rats were obtained from Sprague Dawley Co. (Indianapolis, Ind.) and fed a 0.47% calcium, 0.3% phosphorus vitamin D-deficient diet for 1 week and then given the same diet containing 0.02% calcium, 0.3% phosphorus for 2 weeks. During the last week they were given the indicated dose of compound by intraperitoneal injection in 0.1 ml 95% propylene glycol and 5% ethanol each day for 7 days. The control animals received only the 0.1 ml of 95% propylene glycol, 5% ethanol. Twenty-four hours after the last dose, the rats were sacrificed and intestinal calcium transport was determined by everted sac technique as previously described and serum calcium determined by atomic absorption spectrometry on a model 3110 Perkin Elmer instrument (Norwalk, Conn.). There were 5 rats per group and the values represent mean±SEM.
as §1, with “With respect to the data in Tables 3 and 4, male” for “Male”, “atormic” for “atomic”

[3] = system: serum calcium (bone calcium mobilization); assay: Serum calcium (bone calcium mobilization), chronic doses 7 days i.p., vitamin D-deficient rats; type: in vivo, rat; conditions: for bone calcium mobilization (serum calcium) activity, in words: chronic 7 days, 130 and/or 260 pmol/day
Description: as §1
as §1, with “With respect to the data in Tables 3 and 4, male” for “Male”, “atormic” for “atomic”

[4] = system: intestinal calcium transport; assay: Intestinal calcium transport after a single intrajugular dose, vitamin D-deficient rats; type: in vivo, rat; conditions: Table 2, single intrajugular dose 650 pmol, 24 h, mean±SEM
Description: (§2) Male Holtzman strain weanling rats were obtained from the Sprague Dawley Co. (Indianapolis, Ind.) and fed the 0.47% calcium, 0.3% phosphorus diet described by Suda et al. (J. Nutr. 100, 1049–1052, 1970) for 1 week and then fed the same diet containing 0.02% calcium and 0.3% phosphorus for 2 additional weeks. At this point, they received a single intrajugular injection of the indicated dose dissolved in 0.1 ml of 95% propylene glycol/5% ethanol. Twenty-four hours later they were sacrificed and intestinal calcium transport and serum calcium were determined as described in Table 1. The dose of the compounds was 650 pmol and there were 5 animals per group. The data are expressed as mean±SEM.

[5] = system: serum calcium (bone calcium mobilization); assay: Serum calcium (bone calcium mobilization) after a single intrajugular dose, vitamin D-deficient rats; type: in vivo, rat; conditions: Table 2, single intrajugular dose 650 pmol, 24 h, mean±SEM
Description: as §2

[6] = system: intestinal calcium transport; assay: Support of intestinal calcium transport in vitamin D-deficient rats on a low-calcium diet (3 weeks), 7 daily i.p. doses; type: in vivo, rat
[7] = system: bone calcium mobilization (serum Ca); assay: Bone calcium mobilization (serum Ca) in vitamin D-deficient rats on a low-calcium diet (3 weeks), 7 daily i.p. doses; type: in vivo, rat
[8] = biological target: T1, porcine intestinal vitamin D receptor (Sus scrofa, UniProt A3RGC1); assay: Competitive binding to the porcine intestinal vitamin D receptor ([3H]-1,25-(OH)2-D3 displacement); design: species or system pig; conditions: Table 8
T1 construct: from tissue; host or cells: porcine intestine
T1 sequence (A3RGC1 1-427): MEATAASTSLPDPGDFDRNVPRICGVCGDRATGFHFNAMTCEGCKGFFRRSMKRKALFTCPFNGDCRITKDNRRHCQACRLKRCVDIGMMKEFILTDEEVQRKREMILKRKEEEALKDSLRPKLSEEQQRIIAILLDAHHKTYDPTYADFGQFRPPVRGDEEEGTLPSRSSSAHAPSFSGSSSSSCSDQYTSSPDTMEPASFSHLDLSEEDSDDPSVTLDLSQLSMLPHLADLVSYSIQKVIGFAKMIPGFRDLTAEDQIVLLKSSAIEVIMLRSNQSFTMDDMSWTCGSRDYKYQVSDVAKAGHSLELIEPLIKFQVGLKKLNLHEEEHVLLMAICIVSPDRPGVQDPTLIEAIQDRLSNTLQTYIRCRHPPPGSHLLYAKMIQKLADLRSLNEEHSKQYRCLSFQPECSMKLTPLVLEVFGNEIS

[9] = Table 1, 130 pmol/day/7 days i.p., mean±SEM, 5 rats
[10] = Table 1, 260 pmol/day/7 days i.p., mean±SEM, 5 rats
[11] = listed as α and β isomers of 2-methyl-19-nor-1,25-(OH)2D3
[12] = listed as 2-Methyl (α and β mixture)-19-Nor-1,25-(OH)2D3
[13] = listed as 2-Methyl (α and β mixture)-19-Nor-20S-1,25-(OH)2D3
[14] = Table 4, 260 pmol/day/7 days i.p., mean±SEM
[15] = Table 5, 260 pmol/day/7 days i.p.
[16] = Table 7 panel 1, 260 pmol daily x 7 i.p.
[17] = Table 7 panel 2, 260 pmol daily x 7 i.p.
[18] = Table 9 panel 1, 260 pmol daily x 7 i.p.
[19] = Table 9 panel 2, 260 pmol daily x 7 i.p.
[20] = Table 9 panel 1, 32 pmol daily x 7 i.p.
[21] = Table 9 panel 1, 65 pmol daily x 7 i.p.

SMILES: CC(CCCC(C)(C)O)C1CCC2C(=CC=C3CC(O)C(C)C(O)C3)CCCC21C (mixture of isomers) [2-Methyl (α and β) 19-Nor-1,25-(OH)2D3, mixture of 2α and 2β-methyl-19-nor-1α,25-dihydroxyvitamin D3]
induction of differentiation of HL-60 cells to monocytes, in words [1]: activity similar to 1,25-(OH)2D3
Intestinal Calcium Transport (S/M) [2, 9]: 5.0 ± 0.3 S/M
Intestinal Calcium Transport (S/M) [2, 10]: 5.3 ± 0.6 S/M
intestinal calcium transport activity, in words [2, 11]: no intestinal calcium transport activity
Serum Calcium [3, 9]: 6.1 ± 0.1 mg/100 ml
Serum Calcium [3, 10]: 6.7 ± 0.4 mg/100 ml
bone calcium mobilization (serum calcium) activity, in words [3, 11]: strong bone calcium mobilization at both dose levels
Intestinal Calcium Transport (S/M) [4, 12]: 3.6 ± 0.4 S/M
Serum Calcium [5, 12]: 5.4 ± 0.1 mg/100 ml

SMILES: CC(CCCC(C)(C)O)C1CCC2C(=CC=C3CC(O)C(C)C(O)C3)CCCC21C (mixture of isomers) [2-Methyl (α and β) 19-Nor-20S-1,25-(OH)2D3] [mixture of 2α and 2β-methyl-19-nor-20S-1α,25-dihydroxyvitamin D3]
induction of differentiation of HL-60 cells to monocytes, in words ([1]; listed as α and β derivatives of 2-methyl-19-nor-20S-1,25-(OH)2D3): extremely potent
Intestinal Calcium Transport (S/M) [2, 9]: 5.0 ± 0.9 S/M
Intestinal Calcium Transport (S/M) [2, 10]: 6.9 ± 0.5 S/M
intestinal calcium transport activity, in words [2]: no significant change in intestinal calcium transport at 130 pmol dose level
Serum Calcium [3, 9]: 9.6 ± 0.1 mg/100 ml
Serum Calcium ([3]; Table 1, 130 pmol/day/7 days i.p., mean±SEM, 5 rats, listed as 2-methyl-(α and β)-19-nor-20S-1,25-(OH)2D3): 9.6 mg/100 ml
Serum Calcium [3, 10]: 12.2 ± 0.3 mg/100 ml
Serum Calcium ([3]; Table 1, 260 pmol/day/7 days i.p., mean±SEM, 5 rats, listed as 2-methyl-(α and β)-19-nor-20S-1,25-(OH)2D3): 12.2 mg/100 ml
bone calcium mobilization (serum calcium) activity, in words [3]: much higher than that of the native hormone
Intestinal Calcium Transport (S/M) [4, 13]: 6.7 ± 0.6 S/M
Serum Calcium [5, 13]: 8.1 ± 0.3 mg/100 ml

SMILES: C=C1/C(=C\C=C2/CCC[C@]3(C)[C@@H]([C@H](C)CCCC(C)(C)O)CC[C@@H]23)C[C@@H](O)C[C@@H]1O [1α,25-(OH)2D3, 1α,25-dihydroxyvitamin D3, reference compound]
HL-60 Differentiation ED50 ([1]; Table 6): 4 nM
HL-60 Differentiation ED50 ([1]; Table 8): 4 nM
Intestinal Calcium Transport (S/M) [2, 10]: 6.2 ± 0.4 S/M
Intestinal Calcium Transport (S/M) ([2]; Table 3, 260 pmol/day/7 days i.p., mean±SEM): 4.6 ± 0.2 S/M
Intestinal Calcium Transport (S/M) [2, 14]: 5.6 ± 1.3 S/M
Intestinal Calcium Transport (S/M) [2, 15]: 6.6 ± 0.5 S/M
Serum Calcium ([3]; Table 1, 260 pmol/day/7 days i.p., mean±SEM, 5 rats, listed as 1,25-(OH)2D3): 7.2 mg/100 ml and 7.2 ± 0.5 mg/100 ml
Serum Calcium ([3]; Table 3, 260 pmol/day/7 days i.p., mean±SEM, listed as 1,25-(OH)2D3): 6.6±0.4 mg/100 ml
Serum Calcium [3, 14]: 6.1 ± 0.5 mg/100 ml
Serum Calcium [3, 15]: 5.2 ± 0.1 mg/100 ml
Intestinal Calcium Transport (S/M) [4]: 5.8 ± 0.3 S/M
Serum Calcium [5]: 5.7 ± 0.2 mg/100 ml
Ca Transport S/M (mean ± SEM) [6, 16]: 7.2 ± 0.6^c S/M
Ca Transport S/M (mean ± SEM) [6, 17]: 5.0 ± 0.4^c S/M
Ca Transport S/M (mean ± SEM) [6, 18]: 7.2 ± 0.6^c S/M
Ca Transport S/M (mean ± SEM) [6, 19]: 5.0 ± 0.4^c S/M
Serum Ca (mean ± SEM) [7, 16]: 5.6 ± 0.2^c
Serum Ca (mean ± SEM) [7, 17]: 6.3 ± 0.2^c
Serum Ca (mean ± SEM) [7, 18]: 5.6 ± 0.2^c
Serum Ca (mean ± SEM) [7, 19]: 6.3 ± 0.2^c

VDR Binding ratio ([8]; analog average ED50 / ED50 for 1α,25-(OH)2D3): 4.0
EC50 ([8]; concentration for 50% displacement of radiolabeled 1α,25-(OH)2D3, read-out: VDR Binding ED50): 3.5 nM
SMILES: CC1[C@H](O)CC(=C/C=C2\CCC[C@@]3(C)C2CCC3[C@@H](C)CCCC2(O)CCCC2)C[C@H]1O (stereo partly drawn) [Compound 48, 20(S)-1α,25-Dihydroxy-26,27-dimethylene-2α-methyl-19-norvitamin D3]
HL-60 Differentiation Activity ratio ([1]; Table 8, analog average ED50 / ED50 for 1α,25-(OH)2D3): 0.01
HL-60 Differentiation ED50 ([1]; Table 8): 0.044 nM
Ca Transport S/M (mean ± SEM) [6, 20]: 7.9 ± 1.0^d^1 S/M
Ca Transport S/M (mean ± SEM) [6, 21]: 9.0 ± 1.0^d^2 S/M
Serum Ca (mean ± SEM) [7, 20]: 6.9 ± 0.5^d^1
Serum Ca (mean ± SEM) [7, 21]: 9.0 ± 0.3^d^2
